The IC50 is the concentration that gives 50% inhibition.

The nature of data set [1]: Two stage gastric transfer non-sink dissolution test (0.1N HCl then FaSSIF). In kind it is physicochemical. Particulars: 100 RPM. How it is done:
In vitro drug dissolution performance for both API forms and each SDI was evaluated by the two stage ‘gastric transfer’ non-sink dissolution test (Table 8), which simulates pH and bile salt concentrations for both gastric and intestinal exposure in a sample to perform assay. Pre-weighed SDI powder is briefly suspended in media (e.g., by 10 sec vortex mixing with 4.0 mL media) and transferred to a pre-heated (37° C.) volume of 50 mL of 0.1N HCl (aq) (simulated gastric fluid or SGF, pH ˜1.0, without pepsin or bile salts), in a USP Type 2 mini-vessel (100 mL total vessel volume) while stirring (paddles) at 100 rpm. […] Initial Compound A API measurements and SDI dissolution samples were determined utilizing a HPLC method (Table 7). […]

Another data set relates to human T cell. The experiment in a line: Human T cell assays: pro-inflammatory cytokines. In kind it is cell-based. The source says: (§1) Compound A is a selective AHR antagonist being developed as an orally administered therapeutic. […] Compound A inhibits CYP1A1 and interleukin (IL)-22 gene expression and leads to an increase in pro-inflammatory cytokines, such as IL-2 and IL-9.

For data set [2], the target named is T1, AHR (Homo sapiens, UniProt P35869).
T1 sequence (P35869 11-848): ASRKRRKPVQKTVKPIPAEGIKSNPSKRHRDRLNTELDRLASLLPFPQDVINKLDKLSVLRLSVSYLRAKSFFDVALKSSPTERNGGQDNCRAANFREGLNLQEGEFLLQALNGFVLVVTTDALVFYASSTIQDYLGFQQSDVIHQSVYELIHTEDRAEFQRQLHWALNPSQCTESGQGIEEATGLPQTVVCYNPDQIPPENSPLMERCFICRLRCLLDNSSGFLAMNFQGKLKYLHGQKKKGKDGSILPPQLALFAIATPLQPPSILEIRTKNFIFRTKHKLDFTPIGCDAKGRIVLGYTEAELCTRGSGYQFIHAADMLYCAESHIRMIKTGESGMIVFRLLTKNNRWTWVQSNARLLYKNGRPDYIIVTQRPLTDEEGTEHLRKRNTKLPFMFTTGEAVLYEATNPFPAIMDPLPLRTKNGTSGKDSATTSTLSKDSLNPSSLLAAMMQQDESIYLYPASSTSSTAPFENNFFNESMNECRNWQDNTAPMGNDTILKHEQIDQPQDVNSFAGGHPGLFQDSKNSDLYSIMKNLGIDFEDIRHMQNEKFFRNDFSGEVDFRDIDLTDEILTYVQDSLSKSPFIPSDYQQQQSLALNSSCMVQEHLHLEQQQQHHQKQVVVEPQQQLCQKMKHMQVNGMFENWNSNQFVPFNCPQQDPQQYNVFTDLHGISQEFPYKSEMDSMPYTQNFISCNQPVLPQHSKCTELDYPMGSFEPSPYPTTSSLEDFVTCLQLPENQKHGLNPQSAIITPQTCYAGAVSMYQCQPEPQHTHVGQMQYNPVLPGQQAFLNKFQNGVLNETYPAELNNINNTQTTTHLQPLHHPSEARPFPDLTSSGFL
Briefly: CYP1A1 expression in CD3/CD28 activated human T cells (qRT-PCR). It is filed as cell-based. Details: endogenous in cells. Particulars: 24 hours. How it is done: AHR plays a key role in immune cells and its' inhibition is proposed to reverse immune suppression and activate T cells. The ability of Compound A to inhibit AHR-dependent CYP1A1 expression and cytokine production was assessed in primary human T cells. AHR directly regulates the expression of the immune suppressive cytokine IL-22. Human T cells isolated from healthy donor PBMCs were activated with CD3/CD28 tetramer and incubated for 24 hours with Compound A. Cell pellets were processed for RNA isolation and CYP1A1 analysis by quantitative reverse-transcriptase polymerase chain reaction. For the cytokine analysis assay, CD3/CD28 activated T cells were treated with Compound A, and culture supernatants were collected after 48 hours for analysis of IL-22 levels using Meso Scale Discovery V-plex IL-22 plates. Compound A inhibited AHR-dependent gene expression in activated human T cells by decreasing expression of CYP1A1 in a concentration-dependent manner.
(Real-time PCR tracks product formation cycle by cycle.)

Data set [3] has as its system AHR. Briefly: AHR activity in human and rodent cell lines (summary). It is filed as cell-based.
Text: as §1

Turning to `CC(C)c1cnn2c(N[C@@H]3CCc4[nH]c5ccccc5c4C3)nc(-c3cncc(F)c3)nc12` [Compound A, (R)—N-(2-(5-fluoropyridin-3-yl)-8-isopropylpyrazolo[1,5-a][1,3,5]triazin-4-yl)-2,3,4,9-tetrahydro-1H-carbazol-3-amine], the “AUC35-210 FaSSIF (area under the curve after transfer to FaSSIF from 35 to 210 minutes)” value in data set [1] was found to be 2100 min*μgA/mL. The “C210 (drug concentration at 180 minutes after transfer to FaSSIF)” value in data set [1] was 4.5 μgA/mL. Also, the “pro-inflammatory cytokines, such as IL-2 and IL-9” value in the data set with human T cell is recorded as “increase”. Also, the 50% inhibitory concentration (IC50) against AHR [2] was 63 nM; in the data set on AHR [3], 35 to 150 nM.

These data come from patent publication US20230026232A1, “AHR INHIBITORS AND USES THEREOF” (Ikena Oncology, Inc., priority 2019, published 2023).
